Tests used:
Format in all cases: in vivo
[1] = system: Setaria faberi (SETFA); assay: Pre-Emergence Test (herbicidal, glasshouse pots); details: evaluated after 13 days, five-point scale
[2] = system: Ipomoea hederacea (IPOHE); assay: Pre-Emergence Test (herbicidal, glasshouse pots); details: evaluated after 13 days, five-point scale
[3] = system: Echinochloa crus-galli (ECHCG); assay: Pre-Emergence Test (herbicidal, glasshouse pots); details: evaluated after 13 days, five-point scale
[4] = system: Amaranthus retoflexus (AMARE); assay: Pre-Emergence Test (herbicidal, glasshouse pots); details: evaluated after 13 days, five-point scale
[5] = system: Zea mays (ZEAMX); assay: Pre-Emergence Test (herbicidal, glasshouse pots); details: evaluated after 13 days, five-point scale
[6] = system: Amaranthus palmeri (AMAPA); assay: Pre-Emergence Test (herbicidal, glasshouse pots); details: evaluated after 13 days, five-point scale
[7] = system: Amaranthus palmeri (AMAPA); assay: Post-Emergence Test (herbicidal, glasshouse pots); details: evaluated after 13 days
How it was run: (§1)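 Seeds were sown in standard soil in pots, sprayed at the stated g/ha with an acetone/water (50:50) solution containing 0.5% Tween 20, and kept in a glasshouse (24° C./16° C. day/night, 14 hours light, 65% humidity). Percentage plant damage was scored 13 days later on a five-point scale.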

[8] = system: Amaranthus retoflexus (AMARE); assay: Post-Emergence Test (herbicidal, glasshouse pots); details: evaluated after 13 days
How it was run: as §1

[9] = system: Echinochloa crus-galli (ECHCG); assay: Post-Emergence Test (herbicidal, glasshouse pots); details: evaluated after 13 days
How it was run: as §1

[10] = system: Ipomoea hederacea (IPOHE); assay: Post-Emergence Test (herbicidal, glasshouse pots); details: evaluated after 13 days
How it was run: as §1

[11] = system: Setaria faberi (SETFA); assay: Post-Emergence Test (herbicidal, glasshouse pots); details: evaluated after 13 days
How it was run: as §1

[12] = system: Zea mays (ZEAMX); assay: Post-Emergence Test (herbicidal, glasshouse pots); details: evaluated after 13 days
How it was run: as §1

Row | SMILES | percentage damage caused to the plant, SETFA ([1]; rate 250 g/ha) | percentage damage caused to the plant, IPHOE ([2]; rate 250 g/ha) | percentage damage caused to the plant, ECHCG ([3]; rate 250 g/ha) | percentage damage caused to the plant, AMARE ([4]; rate 250 g/ha) | percentage damage caused to the plant, ZEAMX ([5]; rate 250 g/ha) | percentage damage caused to the plant, AMAPA ([6]; rate 250 g/ha) | Post-Emergence Test AMAPA percentage damage (five-point scale) ([7]; rate 250 g/ha) | Post-Emergence Test AMARE percentage damage (five-point scale) ([8]; rate 250 g/ha) | Post-Emergence Test ECHCG percentage damage (five-point scale) ([9]; rate 250 g/ha) | Post-Emergence Test IPHOE percentage damage (five-point scale) ([10]; rate 250 g/ha) | Post-Emergence Test SETFA percentage damage (five-point scale) ([11]; rate 250 g/ha) | Post-Emergence Test ZEAMX percentage damage (five-point scale) ([12]; rate 250 g/ha) | other results
1 | CCn1c(Oc2cnsn2)cc(=O)c(C(=O)O)c1-c1ccc(Cl)c(Cl)c1 [Compound 43, 2-(3,4-dichlorophenyl)-1-ethyl-4-oxo-6-(1,2,5-thiadiazol-3-yloxy)pyridine-3-carboxylic acid] | 1 (1=0-20%) | 3 (3=41-60%) | 1 (1=0-20%) | 1 (1=0-20%) | 0 | 0 | 2 (2=21-40%) | 1 (1=0-20%) | 2 (2=21-40%) | 4 (4=61-80%) | 2 (2=21-40%) | 0 | 
2 | CCn1ccc(Oc2cc(=O)c(C(=O)O)c(-c3ccc(Cl)c(Cl)c3)n2CC)n1 [Compound 57, 2-(3,4-dichlorophenyl)-1-ethyl-6-(1-ethylpyrazol-3-yl)oxy-4-oxo-pyridine-3-carboxylic acid] | 5 (5=81-100%) | 4 (4=61-80%) | 4 (4=61-80%) | 4 (4=61-80%) | 5 (5=81-100%) | 3 (3=41-60%) | 4 (4=61-80%) | 4 (4=61-80%) | 4 (4=61-80%) | 4 (4=61-80%) | 4 (4=61-80%) | 4 (4=61-80%) | 
3 | CCn1c(Oc2ccccc2F)cc(=O)c(C(=O)O)c1-c1ccc(Cl)c(Cl)c1 [Compound 3, 2-(3,4-dichlorophenyl)-1-ethyl-6-(2-fluorophenoxy)-4-oxo-pyridine-3-carboxylic acid] |  |  |  |  |  |  |  |  |  |  |  |  | percentage damage caused to the plant, SETFA ([1]; rate 1000 g/ha): 5 (5=81-100%); percentage damage caused to the plant, IPHOE ([2]; rate 1000 g/ha): 4 (4=61-80%); percentage damage caused to the plant, ECHCG ([3]; rate 1000 g/ha): 4 (4=61-80%); percentage damage caused to the plant, AMARE ([4]; rate 1000 g/ha): 2 (2=21-40%); percentage damage caused to the plant, ZEAMX ([5]; rate 1000 g/ha): 2 (2=21-40%); percentage damage caused to the plant, AMAPA ([6]; rate 1000 g/ha): 1 (1=0-20%); Post-Emergence Test AMAPA percentage damage (five-point scale) ([7]; rate 1000 g/ha): 2 (2=21-40%); Post-Emergence Test AMARE percentage damage (five-point scale) ([8]; rate 1000 g/ha): 3 (3=41-60%); Post-Emergence Test ECHCG percentage damage (five-point scale) ([9]; rate 1000 g/ha): 4 (4=61-80%); Post-Emergence Test IPHOE percentage damage (five-point scale) ([10]; rate 1000 g/ha): 3 (3=41-60%); Post-Emergence Test SETFA percentage damage (five-point scale) ([11]; rate 1000 g/ha): 4 (4=61-80%); Post-Emergence Test ZEAMX percentage damage (five-point scale) ([12]; rate 1000 g/ha): 2 (2=21-40%)
4 | CCn1c(Oc2ccc(F)nc2)cc(=O)c(C(=O)O)c1-c1ccc(Cl)c(Cl)c1 [Compound 52, 2-(3,4-dichlorophenyl)-1-ethyl-6-[(6-fluoro-3-pyridyl)oxy]-4-oxo-pyridine-3-carboxylic acid] | 5 (5=81-100%) | 3 (3=41-60%) | 4 (4=61-80%) | 3 (3=41-60%) | 5 (5=81-100%) | 2 (2=21-40%) | 1 (1=0-20%) | 4 (4=61-80%) | 4 (4=61-80%) | 4 (4=61-80%) | 4 (4=61-80%) | 4 (4=61-80%) | 
